The values that follow come from patent US10525041B2, “Fluoroalkyl-substituted aryltriazole derivatives and uses thereof” (BAYER PHARMA AKTIENGESELLSCHAFT, priority 2016, dated 2020).

pIC50: −log10 of the molar value.

In assay [1] the target is T1, human V2 receptor (Homo sapiens, UniProt P30518).
T1 construct: expressed in transfected cells; host or cells: CHO K1 (ATCC) line expressing firefly luciferase under a CRE-responsive promoter
The experiment in a line: Cellular in vitro assay for vasopressin receptor activity, V2 cell line (CRE-luciferase). The assay is classed as cell-based. The conditions noted are these: CHO cell line transfected with human V2 receptor; agonist [Arg8]-vasopressin at EC50 concentration, 3 hours; read-out: IC50hV2.

For assay [2], the target named is T2, human V1a receptor (Homo sapiens, UniProt P37288).
T2 construct: expressed in transfected cells; host or cells: CHO K1 (ATCC), also stably transfected with a modified aequorin
Kind of assay: Cellular in vitro assay for vasopressin receptor activity, V1a cell line (aequorin luminescence). It counts as cell-based. Particulars: for pIC50: CHO cell line transfected with human V1a receptor, agonist [Arg8]-vasopressin at EC50 concentration, read-out: IC50hV1a; for ratio IC50 hV2/hV1a: ratio of the IC50 on human V2 to the IC50 on human V1a. An outline of the steps:
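CHO K1 cells stably expressing human V1a receptor with aequorin photoprotein, loaded overnight with coelenterazine. Compounds preincubated 10 min at various concentrations, then challenged with [Arg^8]-vasopressin at EC50 concentration. Calcium-driven luminescence read immediately; IC50 values derived.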

T2 sequence (P37288 whole entry): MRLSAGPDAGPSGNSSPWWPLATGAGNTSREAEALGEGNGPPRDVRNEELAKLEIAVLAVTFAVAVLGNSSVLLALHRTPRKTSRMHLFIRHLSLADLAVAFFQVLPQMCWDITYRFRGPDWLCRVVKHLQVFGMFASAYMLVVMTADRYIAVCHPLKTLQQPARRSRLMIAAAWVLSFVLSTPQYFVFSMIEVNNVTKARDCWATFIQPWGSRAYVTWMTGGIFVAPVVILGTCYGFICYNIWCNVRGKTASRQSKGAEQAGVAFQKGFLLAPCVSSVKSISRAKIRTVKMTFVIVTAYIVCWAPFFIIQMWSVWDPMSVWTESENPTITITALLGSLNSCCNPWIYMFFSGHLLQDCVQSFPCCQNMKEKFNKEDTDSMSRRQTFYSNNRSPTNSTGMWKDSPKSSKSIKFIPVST
T1 sequence (P30518 whole entry): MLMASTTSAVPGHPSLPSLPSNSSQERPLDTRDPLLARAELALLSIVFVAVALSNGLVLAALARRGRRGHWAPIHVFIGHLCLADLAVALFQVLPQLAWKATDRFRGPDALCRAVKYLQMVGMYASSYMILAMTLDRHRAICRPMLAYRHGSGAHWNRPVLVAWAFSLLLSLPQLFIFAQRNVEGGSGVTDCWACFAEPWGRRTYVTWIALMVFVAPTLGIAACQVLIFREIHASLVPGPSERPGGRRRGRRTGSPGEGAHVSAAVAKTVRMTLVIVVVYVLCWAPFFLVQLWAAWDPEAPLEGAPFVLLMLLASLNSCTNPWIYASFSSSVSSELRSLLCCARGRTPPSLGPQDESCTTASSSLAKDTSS

In the case of `CC(F)(F)c1nc(Cn2nc(-c3ccc(Cl)cc3)n(C[C@H](O)C(F)(F)F)c2=O)nn1-c1c(Cl)cccc1Cl` [Example 68, 5-(4-Chlorophenyl)-2-{[1-(2,6-dichlorophenyl)-5-(1,1-difluoroethyl)-1H-1,2,4-triazol-3-yl]methyl}-4-[(2S)-3,3,3-trifluoro-2-hydroxypropyl]-2,4-dihydro-3H-1,2,4-triazol-3-one], the pIC50 is 8.37 in assay [1] and 8.48 in assay [2]. Besides, the “ratio IC50 hV2/hV1a” value in assay [2] amounted to 1.3.
Turning to `CC(F)(F)c1nc(Cn2nc(-c3ccc(Cl)cc3)n(C[C@H](O)C(F)(F)F)c2=O)nn1-c1c(F)cccc1Cl` [Example 69, 2-{[1-(2-Chloro-6-fluorophenyl)-5-(1,1-difluoroethyl)-1H-1,2,4-triazol-3-yl]methyl}-5-(4-chlorophenyl)-4-[(2S)-3,3,3-trifluoro-2-hydroxypropyl]-2,4-dihydro-3H-1,2,4-triazol-3-one], the pIC50 in assay [1] was 8.16. Besides, in assay [2], the pIC50 is 8.53 and the “ratio IC50 hV2/hV1a” value is given as 2.3.
The like results for `CC(F)(F)c1nc(Cn2nc(-c3ccc(Cl)cc3)n(C[C@H](O)C(F)(F)F)c2=O)nn1-c1c(F)cccc1F` [Example 70, 5-(4-Chlorophenyl)-2-{[5-(1,1-difluoroethyl)-1-(2,6-difluorophenyl)-1H-1,2,4-triazol-3-yl]methyl}-4-[(2S)-3,3,3-trifluoro-2-hydroxypropyl]-2,4-dihydro-3H-1,2,4-triazol-3-one] were, in that order, 8.64, 8.76 and 1.3.
As for `Cc1cccc(C)c1-n1nc(Cn2nc(-c3ccc(Cl)cc3)n(C[C@H](O)C(F)(F)F)c2=O)nc1C(C)(F)F` [Example 71, 5-(4-Chlorophenyl)-2-{[5-(1,1-difluoroethyl)-1-(2,6-dimethylphenyl)-1H-1,2,4-triazol-3-yl]methyl}-4-[(2S)-3,3,3-trifluoro-2-hydroxypropyl]-2,4-dihydro-3H-1,2,4-triazol-3-one], the pIC50 in assay [1] was 8.37. Also, in assay [2], the pIC50 is 8.28 and the “ratio IC50 hV2/hV1a” value amounted to 0.8.
Consider `CC(C)c1ccccc1-n1nc(Cn2nc(-c3ccc(Cl)cc3)n(C[C@H](O)C(F)(F)F)c2=O)nc1C(C)(F)F` [Example 72, 5-(4-Chlorophenyl)-2-({5-(1,1-difluoroethyl)-1-[2-(propan-2-yl)phenyl]-1H-1,2,4-triazol-3-yl}methyl)-4-[(2S)-3,3,3-trifluoro-2-hydroxypropyl]-2,4-dihydro-3H-1,2,4-triazol-3-one], for which the pIC50 in assay [1] is 7.46. For the same compound, in assay [2], the pIC50 is 7.51 and the “ratio IC50 hV2/hV1a” value came out at 1.1.
The like results for `CCc1cccc(C)c1-n1nc(Cn2nc(-c3ccc(Cl)cc3)n(C[C@H](O)C(F)(F)F)c2=O)nc1C(C)(F)F` [Example 73, 5-(4-Chlorophenyl)-2-{[5-(1,1-difluoroethyl)-1-(2-ethyl-6-methylphenyl)-1H-1,2,4-triazol-3-yl]methyl}-4-[(2S)-3,3,3-trifluoro-2-hydroxypropyl]-2,4-dihydro-3H-1,2,4-triazol-3-one] were, in that order, 7.92, 7.39 and 0.3.
Turning to `CSc1ccccc1-n1nc(Cn2nc(-c3ccc(Cl)cc3)n(C[C@H](O)C(F)(F)F)c2=O)nc1C(C)(F)F` [Example 74, 5-(4-Chlorophenyl)-2-({5-(1,1-difluoroethyl)-1-[2-(methylsulfanyl)phenyl]-1H-1,2,4-triazol-3-yl}methyl)-4-[(2S)-3,3,3-trifluoro-2-hydroxypropyl]-2,4-dihydro-3H-1,2,4-triazol-3-one], in assay [1], the pIC50 is 9.01. Also, in assay [2], the pIC50 is 8.85 and the “ratio IC50 hV2/hV1a” value worked out at 0.7.
Regarding `O=c1n(Cc2nc(C(F)(F)C3(O)CCCC3)n(-c3ccccc3Cl)n2)nc(-c2ccc(Cl)cc2)n1C[C@H](O)C(F)(F)F` [Example 75, 5-(4-Chlorophenyl)-2-({1-(2-chlorophenyl)-5-[difluoro(1-hydroxycyclopentyl)methyl]-1H-1,2,4-triazol-3-yl}methyl)-4-[(2S)-3,3,3-trifluoro-2-hydroxypropyl]-2,4-dihydro-3H-1,2,4-triazol-3-one], the pIC50 in assay [1] was 8.27. Further, in assay [2], the pIC50 is 9.07 and the “ratio IC50 hV2/hV1a” value amounted to 6.4.
The like results for `NCC(F)(F)c1nc(Cn2nc(-c3ccc(Cl)cc3)n(C[C@H](O)C(F)(F)F)c2=O)nn1-c1ccccc1Cl.O=CO` [Example 76, 2-{[5-(2-Amino-1,1-difluoroethyl)-1-(2-chlorophenyl)-1H-1,2,4-triazol-3-yl]methyl}-5-(4-chlorophenyl)-4-[(2S)-3,3,3-trifluoro-2-hydroxypropyl]-2,4-dihydro-3H-1,2,4-triazol-3-one] were, in that order, 8.50, 9.04 and 3.5.
In the same order, the values of `O=c1n(Cc2nc(C(F)(F)C3CCOCC3)n(-c3ccccc3Cl)n2)nc(-c2ccc(Cl)cc2)n1C[C@H](O)C(F)(F)F` [Example 77, 5-(4-Chlorophenyl)-2-({1-(2-chlorophenyl)-5-[difluoro(tetrahydro-2H-pyran-4-yl)methyl]-1H-1,2,4-triazol-3-yl}methyl)-4-[(2S)-3,3,3-trifluoro-2-hydroxypropyl]-2,4-dihydro-3H-1,2,4-triazol-3-one] are 8.15, 8.85 and 5.0.
The like results for `O=c1n(Cc2nc(C(F)(F)F)n(-c3cccc(F)c3)n2)nc(-c2ccc(Cl)cc2)n1C[C@H](O)C(F)(F)F` [Example 78, 5-(4-Chlorophenyl)-2-{[1-(3-fluorophenyl)-5-(trifluoromethyl)-1H-1,2,4-triazol-3-yl]methyl}-4-[(2S)-3,3,3-trifluoro-2-hydroxypropyl]-2,4-dihydro-3H-1,2,4-triazol-3-one] were, in that order, 8.32, 7.30 and 0.1.
Regarding `O=c1n(Cc2nc(C(F)(F)F)n(-c3ccccc3Cl)n2)nc(-c2ccc(Cl)cc2)n1C[C@H](O)C(F)(F)F` [Example 79, 5-(4-Chlorophenyl)-2-{[1-(2-chlorophenyl)-5-(trifluoromethyl)-1H-1,2,4-triazol-3-yl]methyl}-4-[(2S)-3,3,3-trifluoro-2-hydroxypropyl]-2,4-dihydro-3H-1,2,4-triazol-3-one], the pIC50 is 8.59 in assay [1] and 9.11 in assay [2]. Further, in assay [2], the “ratio IC50 hV2/hV1a” value came out at 3.3.
